Assay results published in patent US20230079732A1, “OPAL PEPTIDE ADMINISTRATION” (priority 2020, published 2023).
Like-named read-outs stand apart in the source and are kept apart here.

Tests used:
blood glucose [1] = test: Oral glucose tolerance test (oGTT), SC-INS versus QD-INS (FIG. 5); format: in vivo, C57BL/6 mice; settings: oral gavage 20 IU/kg, 30 minutes before oGTT
Protocol: A further study was carried out on healthy rodents without diabetic symptoms comparing a saline subcutaneous injection (control), a subcutaneous injection of insulin (SC-INS, 2 IU/kg), or an oral gavage of oral-insulin (QD-INS, 20 IU/kg) 30 minutes before a glucose tolerance test (oGTT).

blood glucose [2] = test: Glucose tolerance test with an oral dose of conjugate (FIG. 4); format: in vivo, rodents; settings: for effect on blood glucose after glucose gavage: 30 minutes before glucose gavage, monitored 90 minutes (FIG. 4 legend)
Protocol: Each subject was then monitored for blood glucose over the 90 minutes after receiving the glucose gavage.
A population of 30 healthy rodents without diabetic symptoms were obtained, and were divided into six treatment groups: one group of 5 rodents received 2 IU/kg of insulin by intraperitoneal injection 30 minutes prior to a glucose gavage; one group received 100 IU/kg of insulin by via oral gavage 30 minutes prior to a glucose gavage; […] gavage; one group of 5 […] gavage and one group of five rodents were given only a glucose gavage. Blood glucose of all rodents were then monitored over 90 minutes post-glucose gavage.

[3] = in vivo, po
Protocol: (§1) Conjugates of radiolabeled insulin and quantum dots were produced in a method as described above, albeit with radiolabeled insulin used instead of native insulin. Two groups of healthy rodents were then orally administered either a dose of conjugates or equivalent radiolabeled unbound insulin. The distribution of radioactivity was then monitored 30 minutes after administration.

blood glucose [4] = test: Insulin tolerance test in diabetic NOD/Scid mouse model (FIG. 8); format: in vivo, NOD/Scid mice; settings: oral gavage versus subcutaneous injection
Protocol: NOD mice with a blood glucose below […] were treated with SC-INS (1 IU/kg) or QD-INS (25 IU/kg) at time 0, mice with a blood glucose above […] were treated with 4 IU/kg SC-INS or 100 IU/kg QD-INS. Blood glucose samples were collected at −15, 0, 15, 30, 45 and 60 mins. […] Data points showing the mean±SD.
Blood glucose was measured used a handheld Glucometer using Accu-check proforma strips. Blood was collected by tail vein sampling following a tail snip. Blood glucose was collected at −15, 0, 15, 30, 45 and 60 mins after a subcutaneous (SC) insulin injection (0.1, 1 or 2 IU/kg) or a gavage of QD-insulin conjugates (10, 20, 30, 40, 50, 75 or 100 IU/kg).

[5] = Uptake of radiolabeled insulin-quantum dot conjugate after oral administration; settings: 30 minutes after oral administration, healthy rodents
Protocol: as §1

[6] = Biodistribution of ^14C radiolabelled insulin (FIG. 6); settings: for main location of radiolabelled insulin: after 30 minutes, mice fasted 4 hours
Protocol: Tissue samples and blood plasma were prepared for radiolabel component analysis according to standard methods. Data is presented in this figure is as a percentage of radiolabel insulin relative to the administrated dosage, data is shown as mean±SD.
Three mice treatment groups were fasted for 4 hours before given either an oral gavage of insulin (Oral INS), a subcutaneous injection of insulin (SC-INS) or an oral gavage of QD-insulin conjugate (QD-INS) at 2 IU/kg doses.

Substance: QD-insulin: Ag2S quantum dot conjugated to insulin by EDC/NHS, then assembled with chitosan with galactose or glucose biopolymer
- lowering of blood glucose levels in oGTT compared with injected insulin (SC-INS, 2 IU/kg) (blood glucose [1]): as effective
- effect on blood glucose after glucose gavage (blood glucose [2]; oral gavage equivalent to 20 IU/kg insulin): reduced the blood glucose of the rodent subjects by an approximately equivalent amount
- blood glucose lowering effects compared with the injected insulin (blood glucose [2]; orally administered): equal, if not better
- blood glucose lowering, no spike after glucose gavage (blood glucose [2]; quantum dot insulin group, oral, 30 minutes prior to glucose gavage (Example 3)): effective in lowering blood glucose
- radioactive label found in the liver [3]: Approximately 50%
- QD-insulin dose relative to the SC-insulin dose that resulted in similar glucose reductions (blood glucose [4]): about 25 times

Substance: insulin
- radioactive label found in the liver [5]: approximately 1%
- blood glucose lowering, no spike after glucose gavage (blood glucose [2]; 2 IU/kg by intraperitoneal injection 30 minutes prior to glucose gavage (Example 3)): effective in lowering blood glucose
- effect on blood glucose after glucose gavage (blood glucose [2]; intraperitoneal injection equivalent to 0.1 IU/kg insulin): reduced the blood glucose of the rodent subjects by an approximately equivalent amount
- main location of radiolabelled insulin ([6]; oral gavage 2 IU/kg): mainly located in the small bowel
- main location of radiolabelled insulin ([6]; subcutaneous injection 2 IU/kg): found in the liver and blood
- location of radiolabelled insulin ([6]; after 2 hours, oral gavage 2 IU/kg): still located in the bowel
- radiolabelled insulin located in the liver ([6]; after 2 hours, subcutaneous injection 2 IU/kg): about 50%
